From US8334110B2, “Detection of blood plasma amygdalin of dissipating blood stasis botanical” (Shanghai Sundise Chinese Medicine Technology Development …, priority 2007, dated 2012)

Test: UPLC/MS determination of blood plasma Amygdalin after administration of the body resistance-strengthening and blood stasis-dissipating botanical composition
Format: in vivo
Conditions: blood plasma of mammals after drenched with body resistance-strengthening and blood stasis-dissipating (Fuzheng Huayu, FZHY) botanical composition; UPLC-MS, FIG. 1 (plasma taken 0.5 hours after administration)
From the text: a. After the administration of the body resistance-strengthening and blood stasis-dissipating botanical composition to mammals, first add 2-5 mol/L phosphoric acid to the composition-containing mammalian blood plasma and mix to homogenize, the volumetric ratio of the blood plasma to phosphoric acid is 1:2-3, feed the same to a Waters Oasis HLB cartridge that has been activated by methanol and water, leach with water and 80-100% methanol and elute with 0.2-1% ammonia methanol, then dry through evaporation and enrich the eluent at 25-30° C., and re-dissolve the eluent with a mobile phase;
Chromatographic conditions: chromatographic column: Acquity UPLC BEH C18, 2.1×100 mm, mobile phase A: Water-Acetonitrile-Formic acid 95:5:0.1 v/v/v, mobile phase B: Acetomtrile-Formic acid 100:0.1 v/v; MS conditions: electrospray ionization (ESI) ion source, detection in the positive ion mode, and the mass scanning range m/z 150˜800.
The ESI ion source in said Step (2) employs detection in the positive ion mode; the desolvation gas flow rate is 440 L/h, the desolvation gas temperature is 300° C., the cone gas flow rate is 50 L/h, the ion source temperature is 100° C., the spray capillary voltage is 3800 V, the sampling cone voltage is 30 V, the extracting cone voltage is 2.00 V, and the lens voltage is 0.1 V. The mass scanning range is m/z 150˜800.
1. […]

N#C[C@H](O[C@@H]1O[C@H](CO[C@@H]2O[C@H](CO)[C@@H](O)[C@H](O)[C@H]2O)[C@@H](O)[C@H](O)[C@H]1O)c1ccccc1 [Amygdalin]
Detection of Amygdalin in blood plasma: can be detected
